Values quoted from earlier work, collected in US6417349B1, “Water-soluble extract of asiaticoside and madecassoside from Centella asiatica and isolating method thereof” (priority 1997, dated 2002).

Conditions: prior-art components

Solubility in water, water-insoluble:
C[C@H]1[C@H](C)CC[C@]2(C(=O)O)CC[C@]3(C)C(=CC[C@@H]4[C@@]5(C)C[C@@H](O)[C@H](O)[C@@](C)(CO)[C@@H]5CC[C@]43C)[C@H]12 [asiatic acid]
CC1CCC2(C(=O)O)CCC3(C)C(=CCC4C5(C)CC(O)C(O)C(C)(C)C5C(O)CC43C)C2C1C (stereo not drawn) [madasiatic acid]
C[C@H]1[C@H](C)CC[C@]2(C(=O)O)CC[C@]3(C)C(=CC[C@@H]4[C@@]5(C)C[C@@H](O)[C@H](O)[C@@](C)(CO)[C@@H]5[C@H](O)C[C@]43C)[C@H]12 [madecassic acid]
